Experimental data published in patent US20060276446A1, “Tricyclic 6-alkylidene-penems as class-D beta-lactamases inhibitors” (priority 2005, published 2006).

Key:
[1] = system: class-D producing organism E. coli GC 2883 (OXA-10 + PSE-2); assay: Antimicrobial susceptibility testing, microbroth dilution (NCCLS): piperacillin combined with β-lactamase inhibitor; assay type: cell-based; conditions: MIC of piperacillin combined with constant 4 μg/mL of the β-lactamase inhibitor (example compound), 35° C. for 18 hours
Experimental: Antimicrobial susceptibility testing. The in vitro activities of the antibiotic, piperacillin in this case, against resistant pathogens expressing class-D enzymes were determined by the microbroth dilution method as recommended by the National Committee for Clinical Laboratory Standards (NCCLS). (NCCLS. 2000. Methods for Dilution Antimicrobial Susceptibility Tests for Bacteria That Grow Aerobically; Approved Standards: M7-A5, vol. 19. National Committe for Clinical Laboratory Standards, Villanova, Pa.). Mueller-Hinton II broth (MHBII)(BBL Cockeysville, Md.), was used for the testing procedure. Microtiter plates containing 50 μl per well of two-fold serial dilutions of piperacillin combined with a constant amount (4 μg/mL) of β-lactamase inhibitor (final concentration) were inoculated with 50 μl of inoculum to yield the appropriate density (10^5 CFU/mL) in 100 μL. The plates were incubated for 18-22 hours at 35° C. in ambient air. […] Both OXA-10 and PSE-2 are class D β-lactamases. (Bush, K., Jacoby, G. A., Medeiros, A. A. Antimicrob. Agents Chemother., 1995, 39, 1211).

| melting point | Compound | Minimal Inhibitory Concentration (MIC50) [1] |
| --- | --- | --- |
| – | O=C(O)C1=CS[C@@H]2/C(=C\c3cn4c(n3)sc3cc(Cl)ccc34)C(=O)N12 [Example 3] | 2 µg/mL |
| > 250 °C | O=C([O-])C1=CS[C@@H]2/C(=C\c3ccc4nc5n(c4c3)CCCS5)C(=O)N12.[Na+] [Example 29, (5R,6Z)-6-(3,4-dihydro-2H-[1,3]thiazino[3,2-a]benzimidazol-7-ylmethylene)-7-oxo-4-thia-1-azabicyclo[3.2.0]hept-2-ene-2-carboxylic acid, sodium salt] | – |
| – | O=C([O-])C1=CS[C@@H]2/C(=C\c3cccc4nc5n(c34)CCS5)C(=O)N12.[Na+] [Example 28, (5R,6Z)-6-(2,3-dihydro[1,3]thiazolo[3,2-a]benzimidazol-4-ylmethylene)-7-oxo-4-thia-1-azabicyclo[3.2.0]hept-2-ene-2-carboxylic acid, sodium salt] | 16 µg/mL |
| > 250 °C | O=C([O-])C1=CS[C@@H]2/C(=C\c3cn4c5c(c(OCCOCc6ccccc6)nc4n3)CCC5)C(=O)N12.[Na+] [Example 27, (5R,6Z)-6-({5-[2-(benzyloxy)ethoxy]-7,8-dihydro-6H-cyclopenta[e]imidazo[1,2-a]pyrimidin-2-yl}methylene)-7-oxo-4-thia-1-azabicyclo[3.2.0]hept-2-ene-2-carboxylic acid, sodium salt] | – |
| – | Cn1c2ccccc2n2cc(/C=C3/C(=O)N4C(C(=O)O)=CS[C@H]34)nc12 [Example 20, (5R),(6Z)-8-[(9-methyl-9H-imidazo[1,2-a]benzimidazol-2-yl)methylene]-7-oxo-4-thia-1-azabicyclo[3.2.0]hept-2-ene-2-carboxylic acid] | 64 µg/mL |
| – | O=C(O)C1=CS[C@@H]2/C(=C\c3cn4c(n3)sc3cc(F)ccc34)C(=O)N12 [Example 14] | 4 µg/mL |
| – | O=C(O)C1=CS[C@@H]2/C(=C\c3cn4c(nc5ccccc54)s3)C(=O)N12 [Example 17, (5R),(6Z)-7-oxo-6-([1,3]thiazolo[3,2-a]benzimidazol-2-ylmethylene)-4-thia-1-azabicyclo[3.2.0]hept-2-ene-2-carboxylic acid] | 32 µg/mL |
| – | O=C(O)C1=CS[C@@H]2/C(=C\c3cn4c(ccc5ccccc54)n3)C(=O)N12 [Example 4, (5R),(6Z)-6-Imidazo[1,2-a]quinolin-2-ylmethylene-7-oxo-4-thia-1-azabicyclo[3.2.0]hept-2-ene-2-carboxylic acid] | 4 µg/mL |
| – | Cc1ccc2c(c1)sc1nc(/C=C3/C(=O)N4C(C(=O)O)=CS[C@H]34)cn12 [Example 7] | 2 µg/mL |
| – | O=C(O)C1=CS[C@@H]2/C(=C\c3cn4c5c(sc4n3)COCC5)C(=O)N12 [Example 15, (5R),(6Z)-6-(5,8-dihydro-6H-imidazo[2,1-b]pyrano[4,3-d][1,3]thiazol-2-ylmethylene)-7-oxo-4-thia-1-azabicyclo[3.2.0]hept-2-ene-2-carboxylic acid] | 4 µg/mL |
| – | (5R,6Z)-7-oxo-6-(4H-thieno[2′,3′:4,5]thiopyrano[2,3-b]pyridin-2-ylmethylene)-4-thia-1-azabicyclo[3.2.0]hept-2-ene-2-carboxylic acid (Sodium salt) [Example 21] | 64 µg/mL |
| – | O=C([O-])C1=CS[C@@H]2C(=Cc3cc4n(n3)Cc3ccccc3OC4)C(=O)N12.[Na+] [Example 11, (5R,6E&Z)-7-oxo-6-(4H,10H-pyrazolo[5,1-c][1,4]benzoxazepin-2-ylmethylene)-4-thia-1-azabicyclo[3.2.0]hept-2-ene-2-carboxylic acid, sodium salt] | 4 µg/mL |
| – | COc1ccc2c(c1)sc1nc(/C=C3/C(=O)N4C(C(=O)O)=CS[C@H]34)cn12 [Example 2] | 4 µg/mL |
| – | O=C(O)C1=CS[C@@H]2/C(=C\c3cn4c5c(sc4n3)CCC5)C(=O)N12 [Example 5, (5R),(6Z)-6-(6,7-dihydro-5H-cyclopenta[d]imidazo[2,1-b][1,3]thiazol-2-ylmethylene)-7-oxo-4-thia-1-azabicyclo[3.2.0]hept-2-ene-2-carboxylic acid] | 2 µg/mL |
| – | O=C(O)C1=CS[C@@H]2/C(=C\c3cn4c5c(sc4n3)CCCC5)C(=O)N12 [Example 19, (5R),(6Z)-7-oxo-6-(5,6,7,8-tetrahydroimidazo[2,1-b][1,3]benzothiazol-2-ylmethylene)-4-thia-1-azabicyclo[3.2.0]hept-2-ene-2-carboxylic acid] | 2 µg/mL |
| – | O=C(O)C1=CS[C@@H]2/C(=C\c3ccc4c(c3)sc3nccn34)C(=O)N12 [Example 16, (5R),(6Z)-6-(imidazo[2,1-b]bebzothiazol-7-ylmethylene)-7-oxo-4-thia-1-azabicyclo[3.2.0]hept-2-ene-2-carboxylic acid] | 32 µg/mL |
| – | O=C([O-])C1=CS[C@@H]2/C(=C\c3cn4c(cnc5ccccc54)n3)C(=O)N12.[Na+] [Example 6, (5R),(6Z)-6-(Imidazo[1,2-a]quinoxaline-2-ylmethylene)-7-oxo-4-thia-1-azabicyclo[3.2.0]hepto-2-ene-2-carboxylic acid, sodium salt] | 0.06 µg/mL |
| 250 °C (dec.) | Cc1nc2nc(/C=C3/C(=O)N4C(C(=O)[O-])=CS[C@H]34)nn2c2c1CCCC2.[Na+] [Example 25, (5R,6Z)-6-[(5-methyl-6,7,8,9-tetrahydro[1,2,4]triazolo[1,5-a]quinazolin-2-yl)methylene]-7-oxo-4-thia-1-azabicyclo[3.2.0]hept-2-ene-2-carboxylic acid, sodium salt] | – |
| – | O=C(O)C1=CS[C@@H]2/C(=C\c3cn4nc5c(c4s3)CCC5)C(=O)N12 [Example 18, (5R),(6Z)-6-(7,8-dihydro-6H-cyclopenta[3.4]pyrazolo[5,1-b][1,3]thiazol-2-ylmethylene)-7-oxo-6-4-thia-1-azabicyclo[3.2.0]hept-2-ene-2-carboxylic acid] | 16 µg/mL |
| > 250 °C | O=C([O-])C1=CS[C@@H]2/C(=C\c3ccc4nc5sccn5c4c3)C(=O)N12.[Na+] [Example 30, (5R,6Z)-7-oxo-6-([1,3]thiazolo[3,2-a]benzimidazol-6-ylmethylene)-4-thia-1-azabicyclo[3.2.0]hept-2-ene-2-carboxylic acid, sodium salt] | – |
| – | CCOC(=O)N1CCc2c(oc3cc(/C=C4/C(=O)N5C(C(=O)[O-])=CS[C@H]45)nn23)C1.[Na+] [Example 33] | 8 µg/mL |
| – | Cc1cccc2sc3nc(/C=C4/C(=O)N5C(C(=O)O)=CS[C@H]45)cn3c12 [Example 13] | 4 µg/mL |
| – | O=C([O-])C1=CS[C@@H]2/C(=C\c3cn4c(n3)nc3n4CCCC3)C(=O)N12.[Na+] [Example 8, (5R),(6Z)-6-(4,5,6,7-tetrahydro-1,3a,3b,8-tetraaza-cyclopenta[a]indene-2-ylmethylene)-7-oxo-4-thia-1-aza-bicyclo[3.2.0]hept-2-ene-2-carboxylic acid sodium salt] | 2 µg/mL |
| – | O=C([O-])C1=CS[C@@H]2/C(=C\c3cn4c(n3)-c3ccccc3C4)C(=O)N12.[Na+] [Example 12, (5R),(6Z)-6-(5H-Imidazo[2,1-a]isoindol-2-ylmethylene)-7-oxo-4-thia-1-aza-bicyclo[3.2.0]hept-2-ene-2-carboxylic acid sodium salt] | 16 µg/mL |
| > 250 °C (dec.) | O=C([O-])C1=CS[C@@H]2/C(=C\c3nc4ncc5c(n4n3)CCC3(C5)OCCO3)C(=O)N12.[Na+] [Example 24, (5R,6Z)-6-(8′,9′-dihydro-6′H-spiro[1,3-dioxolane-2,7′-[1,2,4]triazolo[1,5-a]quinazolin]-2′-ylmethylene)-7-oxo-4-thia-1-azabicyclo[3.2.0]hept-2-ene-2-carboxylic acid, sodium salt] | – |
